According to paper PMC6632053, “Incorporation of Putative Helix-Breaking Amino Acids in the Design of Novel Stapled Peptides: Exploring Biophysical and Cellular Permeability Properties” (Molecules, 2019):
Where two headings read alike, the source gives them in different places. Bridge positions count the residues as written; N and C are the ends. Square brackets hold non-standard residues; d marks the D form. Peptide text beside a SMILES is read from it. R8 = C=CCCCCCC[C@@](C)(N)C(=O)O; Cba = N[C@@H](CC1CCC1)C(=O)O; S5 = C=CCCC[C@](C)(N)C(=O)O

Assays:
[1] = Circular dichroism (CD) α-helicity; format: physicochemical; details: CD of free peptide, 25 °C, 1 mM Hepes pH 7.4, 5% methanol
Description: A total of 5 µL of the 10 mM stock peptide was mixed with 45 µL of 100% methanol, and dried for 2 h in the SpeedVac concentrator (Thermo Scientific). The dried peptide was reconstituted in a buffer (1 mM Hepes pH 7.4 and 5% methanol) to a concentration of 1 mM. The peptide sample was placed in a quartz cuvette with a path length of 0.2 cm. The peptide concentration was determined by the absorbance of the peptide at […]. The CD spectrum was recorded from 300 to 190 nm using the Chirascan-plus qCD machine (Applied Photophysics, Surrey, UK), at 25 °C. All experiments were done in duplicates. The CD spectrum was converted to mean residue ellipticity, before deconvolution and estimation of the secondary structure components of the peptide using the CDNN software (distributed by Applied Photophysics).

[2] = biological target: T1, human Mdm2 1–125 (Homo sapiens, UniProt Q00987); experiment: Mdm2 binding assay (competitive fluorescence anisotropy/polarization)
T1 construct: GST (N); His6 (internal); TEV cleavage site ENLYFQG (internal); made in house; host or cells: Escherichia coli BL21 (DE3) Rosetta T1R
Description: The TEV (tobacco etch virus) cleavage site was changed from ENLYFQS to ENLYFQG to give a fusion protein with the following sequence:
Titrations were carried out with the concentration of Mdm2 held constant at 250 nM and the labeled peptide at 50 nM. The competing molecules were then titrated against the complex of the FAM-labeled peptide and protein. Apparent Kd values were determined by fitting the experimental data to the equations shown below:(2) r=r0+(rb−r0)×2(d^2−3e)cos(θ/3)−9/3Kd1+2(d^2−3e)cos(θ/3)−dd=Kd1+Kd2+[L]st+[L]t−[P]te=([L]t−[P]t)Kd1+([L]st−[P]t)Kd2+Kd1Kd2f=−Kd1Kd2[P]tθ=arcos[−2d^3+9de−27f/2(d^2−3e)^3] where [L]st and [L]t denote labeled ligand and total unlabeled ligand input concentrations, respectively. Kd2 is the dissociation constant of the interaction between the unlabeled ligand and the protein. In all competition experiments, it was assumed that [P]t > [L]st, otherwise considerable amounts of free labeled ligand would always be present and would interfere with measurements. Kd1 is the apparent Kd for the labeled peptide used and was experimentally determined as described in the previous paragraph. The FAM-labeled peptide was dissolved in dimethyl sulfoxide (DMSO) at 1 mM and diluted into the experimental buffer. Readings were carried out with an Envision Multilabel Reader (PerkinElmer). Experiments were carried out in PBS (2.7 mM KCl, 137mM NaCl, 10 mM Na2HPO4, and 2 mM KH2PO4 (pH 7.4)) and 0.1% Tween 20 buffer. All titrations were carried out in triplicate. Curve-fitting was carried out using Prism 4.0 (GraphPad). […] Negative control titrations of the ligands under investigation were also carried out with the fluorescently labeled peptide (in the absence of Mdm2) to ensure no interactions were occurring between the ligands and the FAM-labeled peptide.

[3] = test system: p53 responsive β-lactamase reporter in HCT116 cells; experiment: p53 beta-lactamase reporter gene cellular functional assay; format: cell-based; details: p53 reporter assay, HCT116, read-out: Cellular (µM), cellular activity (EC50)
Description: HCT116 cells were stably transfected with a p53 responsive β-lactamase reporter and were seeded into a 384-well plate at a density of 8000 cells per well. Cells were maintained in McCoy’s 5A Medium with 10% fetal bovine serum (FBS), Blasticidin, and Penicillin/Streptomycin. The cells were incubated overnight, followed by removal of cell growth media and replacement with Opti-MEM either containing 0% FBS or 10% FBS. […] The final working concentration of DMSO was 0.5%. β-lactamase activity was detected using the ToxBLAzer Dual Screen (Invitrogen), as per the manufacturer’s instructions. Measurements were made using the Envision multiplate reader (Perkin–Elmer).

[4] = Table 1, competitive fluorescence polarization, read-out: Mdm2 (nM), Mdm2 binding (Kd)
[5] = Table 2, competitive fluorescence polarization, read-out: Mdm2 (nM), Mdm2 binding (Kd)

T1 sequence (Q00987 with tags, fused parts or gaps): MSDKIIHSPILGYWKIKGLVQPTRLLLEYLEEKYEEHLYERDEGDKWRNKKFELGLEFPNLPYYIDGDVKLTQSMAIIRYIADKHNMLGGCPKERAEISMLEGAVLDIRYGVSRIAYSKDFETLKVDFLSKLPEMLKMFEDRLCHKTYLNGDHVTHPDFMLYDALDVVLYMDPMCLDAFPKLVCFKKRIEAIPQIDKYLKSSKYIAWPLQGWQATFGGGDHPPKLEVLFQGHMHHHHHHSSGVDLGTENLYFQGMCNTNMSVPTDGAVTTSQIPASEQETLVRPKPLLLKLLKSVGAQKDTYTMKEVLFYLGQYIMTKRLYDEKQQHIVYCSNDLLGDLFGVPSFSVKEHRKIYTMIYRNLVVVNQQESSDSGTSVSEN

| Compound | Helicity (%) ([1]; Table 1) | Kd [2, 4] | EC50 ([3]; Table 1) | Helicity (%) ([1]; Table 2) | Kd [2, 5] | EC50 ([3]; Table 2) | Kd [2] |
| --- | --- | --- | --- | --- | --- | --- | --- |
| CC(=O)N[C@@H](CC(C)C)C(=O)N[C@H](C(=O)N[C@@H](Cc1ccccc1)C(=O)N[C@]1(C)CCCCCCC=CCCC[C@@](C)(C(=O)N[C@@H](CO)C(=O)N[C@@H](C)C(=O)N[C@@H](C)C(N)=O)NC(=O)[C@H](CC2CCC2)NC(=O)[C@H](CC(C)C)NC(=O)[C@H](CCC(N)=O)NC(=O)[C@@H](Cc2c[nH]c3ccccc23)NC(=O)[C@H](Cc2ccc(O)cc2)NC(=O)[C@H](CCC(=O)O)NC1=O)[C@@H](C)O [W6(D-Trp) (MP-384)] | 41.0% | 30 nM | 0.6 µM | – | – | – | – |
| CC(=O)N[C@@H](CCCCN=[N+]=[N-])C(=O)NCCC(=O)N[C@@H](CC(C)C)C(=O)N[C@H](C(=O)N[C@@H](Cc1ccccc1)C(=O)N[C@]1(C)CCCCCCC=CCCC[C@@](C)(C(=O)N[C@@H](CO)C(=O)N[C@@H](C)C(=O)N[C@@H](C)C(N)=O)NC(=O)[C@H](CC2CCC2)NC(=O)CNC(=O)[C@H](C)NC(=O)[C@H](Cc2c[nH]c3ccccc23)NC(=O)[C@H](Cc2ccc(O)cc2)NC(=O)[C@H](CCC(=O)O)NC1=O)[C@@H](C)O [Peptide Q9G] | – | – | – | 38.8% | 42 nM | 0.68 µM | – |
| CC(=O)N[C@@H](C)C(=O)N[C@H](C(=O)N[C@@H](Cc1ccccc1)C(=O)N[C@]1(C)CCCCCCC=CCCC[C@@](C)(C(=O)N[C@@H](CO)C(=O)N[C@@H](C)C(=O)N[C@@H](C)C(N)=O)NC(=O)[C@H](CC2CCC2)NC(=O)[C@H](CC(C)C)NC(=O)[C@H](CCC(N)=O)NC(=O)[C@H](Cc2c[nH]c3ccccc23)NC(=O)[C@H](Cc2ccc(O)cc2)NC(=O)[C@H](CCC(=O)O)NC1=O)[C@@H](C)O [Peptide L1A] (Ac-ATF[R8]EYWQL[Cba][S5]SAA-NH2; staple 4-11) | 53.3% | 17.6 nM | 0.5 µM | – | – | – | – |
| CC(=O)N[C@@H](CCCCN=[N+]=[N-])C(=O)NCCC(=O)N[C@@H](CC(C)C)C(=O)N[C@H](C(=O)N[C@@H](Cc1ccccc1)C(=O)N[C@]1(C)CCCCCCC=CCCC[C@@](C)(C(=O)NCC(=O)N[C@@H](C)C(=O)N[C@@H](C)C(N)=O)NC(=O)[C@H](CC2CCC2)NC(=O)[C@H](CCC(N)=O)NC(=O)[C@H](C)NC(=O)[C@H](Cc2c[nH]c3ccccc23)NC(=O)[C@H](Cc2ccc(O)cc2)NC(=O)[C@H](CCC(=O)O)NC1=O)[C@@H](C)O [Peptide S12G] | – | – | – | 46.5% | – | 0.65 µM | 18.9 nM |
| CC(=O)N[C@@H](CC(C)C)C(=O)N[C@H](C(=O)N[C@@H](Cc1ccccc1)C(=O)N[C@]1(C)CCCCCCC=CCCC[C@@](C)(C(=O)N[C@@H](CO)C(=O)N[C@@H](C)C(=O)N[C@@H](C)C(N)=O)NC(=O)[C@H](CC2CCC2)NC(=O)[C@H](CC(C)C)NC(=O)[C@H](CCC(N)=O)NC(=O)[C@H](Cc2c[nH]c3ccccc23)NC(=O)[C@H](Cc2ccc(O)cc2)NC(=O)[C@H](C)NC1=O)[C@@H](C)O [Peptide E5A] (Ac-LTF[R8]AYWQL[Cba][S5]SAA-NH2; staple 4-11) | 27.6% | 29.8 nM | 0.18 µM | – | – | – | – |
| CC(=O)N[C@@H](CC(C)C)C(=O)N[C@H](C(=O)N[C@H](Cc1ccccc1)C(=O)N[C@]1(C)CCCCCCC=CCCC[C@@](C)(C(=O)N[C@@H](CO)C(=O)N[C@@H](C)C(=O)N[C@@H](C)C(N)=O)NC(=O)[C@H](CC2CCC2)NC(=O)[C@H](CC(C)C)NC(=O)[C@H](CCC(N)=O)NC(=O)[C@H](Cc2c[nH]c3ccccc23)NC(=O)[C@H](Cc2ccc(O)cc2)NC(=O)[C@H](CCC(=O)O)NC1=O)[C@@H](C)O [F3(D-Phe)] | 51.8% | 6480 nM | > 50 µM | – | – | – | – |

More lines, main results first:

| Helicity (%) ([1]; Table 1) | Kd [2, 4] | EC50 ([3]; Table 1) | Helicity (%) ([1]; Table 2) | Kd [2, 5] | EC50 ([3]; Table 2) | Compound | Kd [2] |
| --- | --- | --- | --- | --- | --- | --- | --- |
| 34.6% | 18 nM | 0.5 µM | – | – | – | CC(=O)N[C@@H](CC(C)C)C(=O)N[C@H](C(=O)N[C@@H](Cc1ccccc1)C(=O)N[C@]1(C)CCCCCCC=CCCC[C@@](C)(C(=O)N[C@@H](CO)C(=O)N[C@@H](C)C(=O)N[C@H](C)C(N)=O)NC(=O)[C@H](CC2CCC2)NC(=O)[C@H](CC(C)C)NC(=O)[C@H](CCC(N)=O)NC(=O)[C@H](Cc2c[nH]c3ccccc23)NC(=O)[C@H](Cc2ccc(O)cc2)NC(=O)[C@H](CCC(=O)O)NC1=O)[C@@H](C)O [A14(D-Ala)] | – |
| 27.1% | 22 nM | 2.1 µM | – | – | – | CC(=O)N[C@@H](CC(C)C)C(=O)N[C@H](C(=O)N[C@@H](Cc1ccccc1)C(=O)N[C@]1(C)CCCCCCC=CCCC[C@@](C)(C(=O)N[C@@H](CO)C(=O)N[C@@H](C)C(=O)N[C@@H](C)C(N)=O)NC(=O)[C@H](CC2CCC2)NC(=O)[C@H](CC(C)C)NC(=O)[C@@H](CCC(N)=O)NC(=O)[C@H](Cc2c[nH]c3ccccc23)NC(=O)[C@H](Cc2ccc(O)cc2)NC(=O)[C@H](CCC(=O)O)NC1=O)[C@@H](C)O [Q8(D-Gln)] | – |
| 38.2% | 32 nM | 1 µM | – | – | – | CC(=O)N[C@@H](CC(C)C)C(=O)N[C@H](C(=O)N[C@@H](Cc1ccccc1)C(=O)N[C@]1(C)CCCCCCC=CCCC[C@@](C)(C(=O)N[C@@H](CO)C(=O)N[C@@H](C)C(=O)N[C@@H](C)C(N)=O)NC(=O)[C@H](CC2CCC2)NC(=O)[C@H](CC(C)C)NC(=O)[C@H](CCC(N)=O)NC(=O)[C@H](Cc2c[nH]c3ccccc23)NC(=O)[C@H](Cc2ccc(O)cc2)NC(=O)[C@@H](CCC(=O)O)NC1=O)[C@@H](C)O [E5(D-Glu)] | – |
| – | – | – | 41.6% | 21.9 nM | 0.75 µM | CC(=O)N[C@@H](CCCCN=[N+]=[N-])C(=O)NCCC(=O)N1CCC[C@H]1C(=O)N[C@H](C(=O)N[C@@H](Cc1ccccc1)C(=O)N[C@]1(C)CCCCCCC=CCCC[C@@](C)(C(=O)N[C@@H](CO)C(=O)N[C@@H](C)C(=O)N[C@@H](C)C(N)=O)NC(=O)[C@H](CC2CCC2)NC(=O)[C@H](CCC(N)=O)NC(=O)[C@H](C)NC(=O)[C@H](Cc2c[nH]c3ccccc23)NC(=O)[C@H](Cc2ccc(O)cc2)NC(=O)[C@H](CCC(=O)O)NC1=O)[C@@H](C)O [Peptide L1P] | – |
| 48.7% | 12 nM | 0.16 µM | – | – | – | CC(=O)N[C@@H](CC(C)C)C(=O)N[C@H](C(=O)N[C@@H](Cc1ccccc1)C(=O)N[C@]1(C)CCCCCCC=CCCC[C@@](C)(C(=O)N[C@@H](CO)C(=O)N[C@@H](C)C(=O)N[C@@H](C)C(N)=O)NC(=O)[C@H](CC2CCC2)NC(=O)[C@H](C)NC(=O)[C@H](CCC(N)=O)NC(=O)[C@H](Cc2c[nH]c3ccccc23)NC(=O)[C@H](Cc2ccc(O)cc2)NC(=O)[C@H](CCC(=O)O)NC1=O)[C@@H](C)O [Peptide L9A] (Ac-LTF[R8]EYWQA[Cba][S5]SAA-NH2; staple 4-11) | – |
| 19.7% | 88 nM | > 50 µM | – | – | – | CC(=O)N[C@@H](CC(C)C)C(=O)N[C@H](C(=O)N[C@@H](Cc1ccccc1)C(=O)NC(C)(C)C(=O)N[C@@H](CCC(=O)O)C(=O)N[C@@H](Cc1ccc(O)cc1)C(=O)N[C@@H](Cc1c[nH]c2ccccc12)C(=O)N[C@@H](CCC(N)=O)C(=O)N[C@H](CC(C)C)C(=O)N[C@@H](CC1CCC1)C(=O)NC(C)(C)C(=O)N[C@@H](CO)C(=O)N[C@@H](C)C(=O)N[C@@H](C)C(N)=O)[C@@H](C)O [Linear L9(D-Leu)] | – |
| 36.2% | 21.3 nM | 1 µM | – | – | – | CC(=O)N[C@@H](CC(C)C)C(=O)N[C@@H](C)C(=O)N[C@@H](Cc1ccccc1)C(=O)N[C@]1(C)CCCCCCC=CCCC[C@@](C)(C(=O)N[C@@H](CO)C(=O)N[C@@H](C)C(=O)N[C@@H](C)C(N)=O)NC(=O)[C@H](CC2CCC2)NC(=O)[C@H](CC(C)C)NC(=O)[C@H](CCC(N)=O)NC(=O)[C@H](Cc2c[nH]c3ccccc23)NC(=O)[C@H](Cc2ccc(O)cc2)NC(=O)[C@H](CCC(=O)O)NC1=O [Peptide T2A] (Ac-LAF[R8]EYWQL[Cba][S5]SAA-NH2; staple 4-11) | – |
